Molecular target: T1, Dipeptidyl peptidase 1 (Mus musculus, UniProt P97821)
T1 sequence (P97821 whole entry): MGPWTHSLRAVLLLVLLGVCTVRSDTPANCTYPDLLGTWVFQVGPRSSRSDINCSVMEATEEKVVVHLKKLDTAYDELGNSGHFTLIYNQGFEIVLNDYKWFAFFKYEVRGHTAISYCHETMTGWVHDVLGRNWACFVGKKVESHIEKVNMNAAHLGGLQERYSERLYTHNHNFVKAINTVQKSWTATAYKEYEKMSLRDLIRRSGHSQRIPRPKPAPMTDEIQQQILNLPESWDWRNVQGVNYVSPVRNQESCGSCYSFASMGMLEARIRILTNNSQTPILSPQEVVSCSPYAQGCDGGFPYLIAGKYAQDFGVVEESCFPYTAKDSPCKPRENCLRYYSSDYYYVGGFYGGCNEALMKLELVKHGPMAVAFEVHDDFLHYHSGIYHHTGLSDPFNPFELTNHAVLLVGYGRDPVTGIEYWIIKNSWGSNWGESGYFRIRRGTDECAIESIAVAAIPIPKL
Assay: Compound was evaluated to inhibit cathepsin C (Dipeptidyl peptidase I) in non competitive binding assay

`COC(=O)CCP(=O)(O)C(CCc1ccccc1)NC(=O)CN` (stereo not drawn) gave a Ki of 312 µM.

`CC(C)CC(NC(=O)CN)P(=O)(O)CCC(=O)O` (stereo not drawn) showed a Ki of 39 µM.

`COC(=O)CCP(=O)(O)C(NC(=O)CN)c1ccccc1` (stereo not drawn) showed a Ki of 188 µM.

Work on `NCC(=O)NC(Cc1ccccc1)P(=O)(O)CCC(=O)O` (stereo not drawn) yielded a Ki of 429 µM.

Work on `COC(=O)CCP(=O)(O)C(CC(C)C)NC(=O)CN` (stereo not drawn) yielded a Ki of 40 µM.

`COC(=O)CCP(=O)(O)C(Cc1ccccc1)NC(=O)CN` (stereo not drawn) was tested, and the Ki was 514 µM.

In the case of `NCC(=O)NC(c1ccccc1)P(=O)(O)CCC(=O)O` (stereo not drawn), the Ki is reported as 176 µM.

Work on `NCC(=O)NC(CCc1ccccc1)P(=O)(O)CCC(=O)O` (stereo not drawn) yielded a Ki of 187 µM.

— ChEMBL document CHEMBL1146785, “Synthesis and activity of phosphinic tripeptide inhibitors of cathepsin C” (Bioorg Med Chem Lett, 2004)
